According to EP4745137A1 (Gluetacs Therapeutics (Shanghai) Co., Ltd., priority 2023, dated 2025):
Where two headings read alike, the source gives them in different places.

What was measured:
WEE1 = target: T1, WEE1 (Homo sapiens, UniProt P30291+Q96SW2); assay: Western-blot assay of substrate protein degradation in hPBMCs, WEE1; format: cell-based; conditions: 24 hours of compound treatment, 50 nM and 500 nM tested (concentration behind the class not stated)
T1 construct: endogenous in cells; host or cells: hPBMCs (Milecell Biotechnologies)

IKZF1 = target: T2, IKZF1 (Homo sapiens, UniProt Q13422+Q96SW2); assay: Western-blot assay of substrate protein degradation in hPBMCs, IKZF1; format: cell-based; conditions: 24 hours of compound treatment, 50 nM and 500 nM tested (concentration behind the class not stated)
T2 construct: endogenous in cells; host or cells: hPBMCs (Milecell Biotechnologies)
T2 sequence (Q13422 whole entry): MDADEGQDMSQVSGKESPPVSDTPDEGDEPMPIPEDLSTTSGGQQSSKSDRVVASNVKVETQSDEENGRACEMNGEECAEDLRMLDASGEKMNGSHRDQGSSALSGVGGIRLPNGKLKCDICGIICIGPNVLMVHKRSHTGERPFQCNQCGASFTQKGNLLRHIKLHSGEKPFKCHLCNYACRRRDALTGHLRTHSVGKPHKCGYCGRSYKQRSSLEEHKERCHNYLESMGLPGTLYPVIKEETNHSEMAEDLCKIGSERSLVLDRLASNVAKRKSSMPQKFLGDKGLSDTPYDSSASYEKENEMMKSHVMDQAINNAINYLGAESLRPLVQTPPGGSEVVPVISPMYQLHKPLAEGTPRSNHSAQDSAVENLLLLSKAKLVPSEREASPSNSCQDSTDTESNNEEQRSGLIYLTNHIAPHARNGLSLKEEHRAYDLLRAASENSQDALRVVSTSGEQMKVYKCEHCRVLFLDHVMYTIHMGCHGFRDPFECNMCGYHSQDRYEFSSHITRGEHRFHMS
T2 sequence (Q96SW2 whole entry): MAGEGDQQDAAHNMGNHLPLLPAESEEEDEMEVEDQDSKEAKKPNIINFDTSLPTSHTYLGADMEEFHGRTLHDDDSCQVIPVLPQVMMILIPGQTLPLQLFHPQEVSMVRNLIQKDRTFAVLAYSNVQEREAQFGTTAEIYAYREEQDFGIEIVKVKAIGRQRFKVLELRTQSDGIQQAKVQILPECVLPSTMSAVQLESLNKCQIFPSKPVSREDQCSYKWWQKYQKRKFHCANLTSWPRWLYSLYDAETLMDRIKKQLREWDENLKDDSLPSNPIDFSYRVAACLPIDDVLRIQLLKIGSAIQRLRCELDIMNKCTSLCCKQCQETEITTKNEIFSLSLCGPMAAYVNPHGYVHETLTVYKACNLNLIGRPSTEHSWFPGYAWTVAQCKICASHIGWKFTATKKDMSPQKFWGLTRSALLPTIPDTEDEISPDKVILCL
T2 sequence (Q16531 whole entry partner): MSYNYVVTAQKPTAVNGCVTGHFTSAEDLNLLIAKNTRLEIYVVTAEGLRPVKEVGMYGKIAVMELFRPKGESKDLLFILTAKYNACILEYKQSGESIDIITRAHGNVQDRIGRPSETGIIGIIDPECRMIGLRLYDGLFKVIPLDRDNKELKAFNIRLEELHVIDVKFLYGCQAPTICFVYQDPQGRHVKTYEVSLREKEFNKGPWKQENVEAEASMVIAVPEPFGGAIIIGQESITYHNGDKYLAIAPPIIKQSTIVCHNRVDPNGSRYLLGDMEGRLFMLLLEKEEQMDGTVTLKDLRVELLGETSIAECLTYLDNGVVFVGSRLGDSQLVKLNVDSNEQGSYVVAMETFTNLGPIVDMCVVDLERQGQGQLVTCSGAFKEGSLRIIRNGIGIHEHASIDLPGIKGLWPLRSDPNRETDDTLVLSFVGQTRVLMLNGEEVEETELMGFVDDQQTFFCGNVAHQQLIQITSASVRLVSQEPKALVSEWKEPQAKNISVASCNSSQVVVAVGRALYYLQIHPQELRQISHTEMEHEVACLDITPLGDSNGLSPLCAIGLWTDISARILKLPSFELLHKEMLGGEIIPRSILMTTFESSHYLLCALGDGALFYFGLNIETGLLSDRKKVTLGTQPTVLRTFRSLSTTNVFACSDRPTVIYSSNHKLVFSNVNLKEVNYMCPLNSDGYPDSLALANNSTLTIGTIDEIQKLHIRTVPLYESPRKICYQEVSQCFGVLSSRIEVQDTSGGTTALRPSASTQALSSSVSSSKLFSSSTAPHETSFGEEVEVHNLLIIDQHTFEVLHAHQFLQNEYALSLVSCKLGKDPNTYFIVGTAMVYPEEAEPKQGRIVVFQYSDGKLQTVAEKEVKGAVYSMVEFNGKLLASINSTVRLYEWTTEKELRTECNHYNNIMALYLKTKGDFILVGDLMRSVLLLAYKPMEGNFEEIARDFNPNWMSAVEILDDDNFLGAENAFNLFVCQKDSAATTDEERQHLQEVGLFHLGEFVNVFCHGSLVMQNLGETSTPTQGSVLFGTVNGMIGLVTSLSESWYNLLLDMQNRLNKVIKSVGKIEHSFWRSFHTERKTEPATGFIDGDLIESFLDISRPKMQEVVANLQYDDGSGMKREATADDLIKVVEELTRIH

IKZF2 = target: T3, IKZF2 (Homo sapiens, UniProt Q96SW2+Q9UKS7); assay: Western-blot assay of substrate protein degradation in hPBMCs, IKZF2; format: cell-based; conditions: 24 hours of compound treatment, 50 nM and 500 nM tested (concentration behind the class not stated)
T3 construct: endogenous in cells; host or cells: hPBMCs (Milecell Biotechnologies)
T3 sequence (Q9UKS7 whole entry): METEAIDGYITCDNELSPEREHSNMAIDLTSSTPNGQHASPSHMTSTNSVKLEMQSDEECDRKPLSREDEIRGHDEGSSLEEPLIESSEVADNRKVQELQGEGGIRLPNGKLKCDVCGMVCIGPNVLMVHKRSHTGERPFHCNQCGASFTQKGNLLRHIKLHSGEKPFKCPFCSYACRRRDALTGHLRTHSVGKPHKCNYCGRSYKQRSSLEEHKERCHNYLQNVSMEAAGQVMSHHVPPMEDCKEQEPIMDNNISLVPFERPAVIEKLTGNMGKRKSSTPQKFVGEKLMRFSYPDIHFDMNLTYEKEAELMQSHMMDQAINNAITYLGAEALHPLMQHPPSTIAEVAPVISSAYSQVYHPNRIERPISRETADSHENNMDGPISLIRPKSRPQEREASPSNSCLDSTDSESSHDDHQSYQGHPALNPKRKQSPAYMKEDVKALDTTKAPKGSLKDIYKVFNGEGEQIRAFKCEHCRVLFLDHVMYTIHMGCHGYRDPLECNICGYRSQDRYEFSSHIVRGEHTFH
T3 sequence (Q96SW2 whole entry): as the sequence (Q96SW2 whole entry) above
T3 sequence (Q16531 whole entry partner): as the sequence (Q16531 whole entry partner) above

IKZF3 = target: T4, IKZF3 (Homo sapiens, UniProt Q96SW2+Q9UKT9); assay: Western-blot assay of substrate protein degradation in hPBMCs, IKZF3; format: cell-based; conditions: 24 hours of compound treatment, 50 nM and 500 nM tested (concentration behind the class not stated)
T4 construct: endogenous in cells; host or cells: hPBMCs (Milecell Biotechnologies)
T4 sequence (Q9UKT9 whole entry): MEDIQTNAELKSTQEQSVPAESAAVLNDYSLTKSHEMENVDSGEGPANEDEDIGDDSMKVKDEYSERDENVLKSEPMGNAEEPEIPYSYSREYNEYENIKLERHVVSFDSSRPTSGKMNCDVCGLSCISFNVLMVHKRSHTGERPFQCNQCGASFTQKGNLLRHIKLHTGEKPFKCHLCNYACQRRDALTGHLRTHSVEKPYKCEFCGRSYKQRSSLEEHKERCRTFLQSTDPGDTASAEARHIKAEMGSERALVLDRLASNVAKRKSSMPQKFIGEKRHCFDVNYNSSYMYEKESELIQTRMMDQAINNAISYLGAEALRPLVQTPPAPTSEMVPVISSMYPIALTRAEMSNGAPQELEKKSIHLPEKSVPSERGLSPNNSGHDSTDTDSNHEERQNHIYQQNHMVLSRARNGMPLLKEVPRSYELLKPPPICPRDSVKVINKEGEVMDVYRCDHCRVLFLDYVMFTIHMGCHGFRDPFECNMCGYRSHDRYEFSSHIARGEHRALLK
T4 sequence (Q96SW2 whole entry): as the sequence (Q96SW2 whole entry) above
T4 sequence (Q16531 whole entry partner): as the sequence (Q16531 whole entry partner) above

CK1α = target: T5, CK1α (Homo sapiens, UniProt P48729+Q96SW2); assay: Western-blot assay of substrate protein degradation in hPBMCs, CK1α; format: cell-based; conditions: 24 hours of compound treatment, 50 nM and 500 nM tested (concentration behind the class not stated)
T5 construct: endogenous in cells; host or cells: hPBMCs (Milecell Biotechnologies)
T5 sequence (P48729 whole entry): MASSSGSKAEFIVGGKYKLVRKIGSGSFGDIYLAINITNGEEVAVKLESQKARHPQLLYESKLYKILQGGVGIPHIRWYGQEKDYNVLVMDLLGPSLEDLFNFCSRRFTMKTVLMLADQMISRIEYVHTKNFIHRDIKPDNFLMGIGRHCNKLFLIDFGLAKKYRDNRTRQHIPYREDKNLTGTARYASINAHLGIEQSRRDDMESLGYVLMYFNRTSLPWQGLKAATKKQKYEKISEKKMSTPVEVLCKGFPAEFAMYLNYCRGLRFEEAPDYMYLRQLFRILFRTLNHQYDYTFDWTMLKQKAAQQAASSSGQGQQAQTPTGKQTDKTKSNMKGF
T5 sequence (Q96SW2 whole entry): as the sequence (Q96SW2 whole entry) above
T5 sequence (Q16531 whole entry partner): as the sequence (Q16531 whole entry partner) above

GSPT1 = target: T6, GSPT1 (Homo sapiens, UniProt P15170+Q96SW2); assay: Western-blot assay of substrate protein degradation in hPBMCs, GSPT1; format: cell-based; conditions: 24 hours of compound treatment, 50 nM and 500 nM tested (concentration behind the class not stated)
T6 construct: endogenous in cells; host or cells: hPBMCs (Milecell Biotechnologies)
T6 sequence (P15170 whole entry): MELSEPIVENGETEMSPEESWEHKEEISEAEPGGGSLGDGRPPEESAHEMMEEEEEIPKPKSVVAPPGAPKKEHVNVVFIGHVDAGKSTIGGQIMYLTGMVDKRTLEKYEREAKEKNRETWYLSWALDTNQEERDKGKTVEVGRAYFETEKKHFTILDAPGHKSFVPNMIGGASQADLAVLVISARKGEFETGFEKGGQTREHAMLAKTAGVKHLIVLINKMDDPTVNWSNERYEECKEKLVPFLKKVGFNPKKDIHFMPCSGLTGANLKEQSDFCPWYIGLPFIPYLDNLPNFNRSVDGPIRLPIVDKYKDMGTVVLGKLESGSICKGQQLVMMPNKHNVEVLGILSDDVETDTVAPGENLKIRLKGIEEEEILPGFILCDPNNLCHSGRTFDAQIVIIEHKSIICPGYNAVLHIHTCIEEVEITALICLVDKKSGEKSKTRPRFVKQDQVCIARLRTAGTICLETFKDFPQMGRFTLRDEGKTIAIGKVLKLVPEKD
T6 sequence (Q96SW2 whole entry): as the sequence (Q96SW2 whole entry) above
T6 sequence (Q16531 whole entry partner): as the sequence (Q16531 whole entry partner) above

MV-4-11 = assay: Tumor cell proliferation inhibition (CellTiter-Meiluncell Luminescent Cell Viability Assay), MV-4-11
[1] = target: T7, human Cereblon WT GST-tagged protein (Homo sapiens, UniProt Q96SW2); assay: CRBN-binding affinity by HTRF (CEREBLON BINDING kit); conditions: HTRF inhibitory activity, CEREBLON BINDING kit; read-out: HTRF IC50
T7 construct: purchased CISBIO 64BDCRBNPEH
T7 sequence (Q96SW2 whole entry): as the sequence (Q96SW2 whole entry) above

[2] = Homo sapiens, MV4-11, read-out: inhibitory activity (IC50, nM) against tumor cells proliferation, MV-4-11

SMILES | Weel substrate protein remaining % (WEE1) | IKZF 1 substrate protein remaining % (IKZF1) | IKZF2 substrate protein remaining % (IKZF2) | IKZF3 substrate protein remaining % (IKZF3) | CK1a substrate protein remaining % (CK1α) | GSPT1 substrate protein remaining % (GSPT1) | IC50 (MV-4-11; [2]) | IC50 [1] | IC50 (MV-4-11; read-out: inhibitory activity (IC50, nM) against tumor cells proliferation, MV-4-11)
O=C1CCC(N2C(=O)c3ccc(CN4CCN(c5cc(Cl)nnc5Cl)CC4)cc3C2=O)C(=O)N1 (stereo not drawn) [GT-06625, 5-((4-(3,6-dichloropyridazin-4-yl)piperazin-1-yl)methyl)-2-(2,6-dioxopiperidin-3-yl)isoindoline-1,3-dione] | B (80%< substrate protein remaining %≤ 100%) | B (80%< substrate protein remaining %≤ 100%) | B (80%< substrate protein remaining %≤ 100%) | B (80%< substrate protein remaining %≤ 100%) | B (80%< substrate protein remaining %≤ 100%) | A (0% ≤ substrate protein remaining % ≤ 80%) | 100 to 500 nM |  | 
O=C1CCC(N2C(=O)c3ccc(CN4CCN(c5nsc6cc(F)ccc56)CC4)cc3C2=O)C(=O)N1 (stereo not drawn) [GT-06631, 2-(2,6-dioxopiperidin-3-yl)-5-((4-(6-fluorobenzo[d]isothiazol-3-yl)piperazin-1-yl)methyl)isoindoline-1,3-dione] | A (0% ≤ substrate protein remaining % ≤ 80%) | B (80%< substrate protein remaining %≤ 100%) | B (80%< substrate protein remaining %≤ 100%) | B (80%< substrate protein remaining %≤ 100%) | A (0% ≤ substrate protein remaining % ≤ 80%) | A (0% ≤ substrate protein remaining % ≤ 80%) | 100 to 500 nM |  | 
O=C1CCC(N2C(=O)c3ccc(CN4CCN(c5ccnc(Cl)c5F)CC4)cc3C2=O)C(=O)N1 (stereo not drawn) [GT-06620, 5-((4-(2-chloro-3-fluoropyridin-4-yl)piperazin-1-yl)methyl)-2-(2,6-dioxopiperidin-3-yl)isoindoline-1,3-dione] | B (80%< substrate protein remaining %≤ 100%) | B (80%< substrate protein remaining %≤ 100%) | B (80%< substrate protein remaining %≤ 100%) | A (0% ≤ substrate protein remaining % ≤ 80%) | B (80%< substrate protein remaining %≤ 100%) | A (0% ≤ substrate protein remaining % ≤ 80%) | 100 to 500 nM |  | 
O=C1CCC(N2C(=O)c3ccc(CN4CCN(c5nc(N6CCOCC6)nc6c5SCC6)CC4)cc3C2=O)C(=O)N1 (stereo not drawn) [GT-06712, 2-(2,6-dioxopiperidin-3-yl)-5-((4-(2-morpholino-6,7-dihydrothieno[3,2-d]pyrimidin-4-yl)piperazin-1-yl)methyl)isoindoline-1,3-dione] | B (80%< substrate protein remaining %≤ 100%) | B (80%< substrate protein remaining %≤ 100%) | B (80%< substrate protein remaining %≤ 100%) | B (80%< substrate protein remaining %≤ 100%) | B (80%< substrate protein remaining %≤ 100%) | A (0% ≤ substrate protein remaining % ≤ 80%) | 100 to 500 nM |  | 
O=C1CCC(N2C(=O)c3ccc(CN4CC=C(c5ncnc6sc7c(c56)CCC7)CC4)cc3C2=O)C(=O)N1 (stereo not drawn) [GT-06681, 5-((4-(6,7-dihydro-5H-cyclopenta[4,5]thieno[2,3-d]pyrimidin-4-yl)-3,6-dihydropyridin-1(2H)-yl)methyl)-2-(2,6-dioxopiperidin-3-yl)isoindoline-1,3-dione] | A (0% ≤ substrate protein remaining % ≤ 80%) | A (0% ≤ substrate protein remaining % ≤ 80%) | A (0% ≤ substrate protein remaining % ≤ 80%) | A (0% ≤ substrate protein remaining % ≤ 80%) | B (80%< substrate protein remaining %≤ 100%) | A (0% ≤ substrate protein remaining % ≤ 80%) | 500 to 1000 nM | 1500 to 1900 nM | 
O=C1CCC(N2C(=O)c3ccc(CN4CC=C(c5ccnc(F)c5F)CC4)cc3C2=O)C(=O)N1 (stereo not drawn) [GT-06614, 5-((2',3'-difluoro-3,6-dihydro-[4,4'-bipyridin]-1(2H)-yl)methyl)-2-(2,6-dioxopiperidin-3-yl)isoindoline-1,3-dione] | B (80%< substrate protein remaining %≤ 100%) | B (80%< substrate protein remaining %≤ 100%) | B (80%< substrate protein remaining %≤ 100%) | B (80%< substrate protein remaining %≤ 100%) | A (0% ≤ substrate protein remaining % ≤ 80%) | A (0% ≤ substrate protein remaining % ≤ 80%) | 10 to 50 nM |  | 
O=C1CCC(N2C(=O)c3ccc(CN4CCC(n5cnc6cc(F)ccc65)CC4)cc3C2=O)C(=O)N1 (stereo not drawn) [GT-06638, 2-(2,6-dioxopiperidin-3-yl)-5-((4-(5-fluoro-1H-benzo[d]imidazol-1-yl)piperidin-1-yl)methyl)isoindoline-1,3-dione] | A (0% ≤ substrate protein remaining % ≤ 80%) | B (80%< substrate protein remaining %≤ 100%) | B (80%< substrate protein remaining %≤ 100%) | B (80%< substrate protein remaining %≤ 100%) | A (0% ≤ substrate protein remaining % ≤ 80%) | A (0% ≤ substrate protein remaining % ≤ 80%) | 500 to 1000 nM |  | 
O=C1CCC(N2C(=O)c3ccc(CN4CCN(c5ncncn5)CC4)cc3C2=O)C(=O)N1 (stereo not drawn) [GT-06626, 5-((4-(1,3,5-triazin-2-yl)piperazin-1-yl)methyl)-2-(2,6-dioxopiperidin-3-yl)isoindoline-1,3-dione] |  | B (80%< substrate protein remaining %≤ 100%) | B (80%< substrate protein remaining %≤ 100%) | B (80%< substrate protein remaining %≤ 100%) |  | A (0% ≤ substrate protein remaining % ≤ 80%) |  |  | 50 to 100 nM
O=C1CCC(N2C(=O)c3ccc(CN4CCN(c5nc(N6CCOCC6)nc6ccsc56)CC4)cc3C2=O)C(=O)N1 (stereo not drawn) [GT-06717, 2-(2,6-dioxopiperidin-3-yl)-5-((4-(2-morpholinothieno[3,2-d]pyrimidin-4-yl)piperazin-1-yl)methyl)isoindoline-1,3-dione] | A (0% ≤ substrate protein remaining % ≤ 80%) | A (0% ≤ substrate protein remaining % ≤ 80%) | B (80%< substrate protein remaining %≤ 100%) | B (80%< substrate protein remaining %≤ 100%) | B (80%< substrate protein remaining %≤ 100%) | A (0% ≤ substrate protein remaining % ≤ 80%) | 10 to 50 nM |  | 
O=C1CCC(N2C(=O)c3ccc(CN4CCN(c5nccc(Cl)c5Br)CC4)cc3C2=O)C(=O)N1 (stereo not drawn) [GT-06601, 5-((4-(3-bromo-4-chloropyridin-2-yl)piperazin-1-yl)methyl)-2-(2,6-dioxopiperidin-3-yl)isoindoline-1,3-dione] | B (80%< substrate protein remaining %≤ 100%) | B (80%< substrate protein remaining %≤ 100%) | B (80%< substrate protein remaining %≤ 100%) | B (80%< substrate protein remaining %≤ 100%) | B (80%< substrate protein remaining %≤ 100%) | A (0% ≤ substrate protein remaining % ≤ 80%) | 100 to 500 nM |  | 
O=C1CCC(N2C(=O)c3ccc(CN4CCN(c5nc(N6CCOCC6)c6sccc6n5)CC4)cc3C2=O)C(=O)N1 (stereo not drawn) [GT-06718, 2-(2,6-dioxopiperidin-3-yl)-5-((4-(4-morpholinothieno[3,2-d]pyrimidin-2-yl)piperazin-1-yl)methyl)isoindoline-1,3-dione] | B (80%< substrate protein remaining %≤ 100%) | B (80%< substrate protein remaining %≤ 100%) | B (80%< substrate protein remaining %≤ 100%) | B (80%< substrate protein remaining %≤ 100%) | B (80%< substrate protein remaining %≤ 100%) | A (0% ≤ substrate protein remaining % ≤ 80%) | 100 to 500 nM | 1000 to 1500 nM | 
O=C1CCC(N2C(=O)c3ccc(CN4CCC(N5CCc6cc(F)ccc65)CC4)cc3C2=O)C(=O)N1 (stereo not drawn) [GT-06637, 2-(2,6-dioxopiperidin-3-yl)-5-((4-(5-fluoroindolin-1-yl)piperidin-1-yl)methyl)isoindoline-1,3-dione] | A (0% ≤ substrate protein remaining % ≤ 80%) | A (0% ≤ substrate protein remaining % ≤ 80%) | A (0% ≤ substrate protein remaining % ≤ 80%) | A (0% ≤ substrate protein remaining % ≤ 80%) | A (0% ≤ substrate protein remaining % ≤ 80%) | A (0% ≤ substrate protein remaining % ≤ 80%) | 50 to 100 nM |  | 
